Test results published in ChEMBL document CHEMBL1201862, “PubChem BioAssay data set” (2004).
Calls of active or inactive are those of the source.

How the values were obtained:
[1] = biological target: Alkaline phosphatase, placental type (Homo sapiens, UniProt P05187); assay: PLAP enzyme inhibitors, confirmation, biochemical, luminescence (AID 1512); format: functional
[2] = biological target: T1, Alkaline phosphatase, tissue-nonspecific isozyme (Homo sapiens, UniProt P05186); assay: human TNAP enzyme inhibitors, SAR follow-up, biochemical, luminescent, dose response (AID 1056)
T1 sequence (P05186 whole entry): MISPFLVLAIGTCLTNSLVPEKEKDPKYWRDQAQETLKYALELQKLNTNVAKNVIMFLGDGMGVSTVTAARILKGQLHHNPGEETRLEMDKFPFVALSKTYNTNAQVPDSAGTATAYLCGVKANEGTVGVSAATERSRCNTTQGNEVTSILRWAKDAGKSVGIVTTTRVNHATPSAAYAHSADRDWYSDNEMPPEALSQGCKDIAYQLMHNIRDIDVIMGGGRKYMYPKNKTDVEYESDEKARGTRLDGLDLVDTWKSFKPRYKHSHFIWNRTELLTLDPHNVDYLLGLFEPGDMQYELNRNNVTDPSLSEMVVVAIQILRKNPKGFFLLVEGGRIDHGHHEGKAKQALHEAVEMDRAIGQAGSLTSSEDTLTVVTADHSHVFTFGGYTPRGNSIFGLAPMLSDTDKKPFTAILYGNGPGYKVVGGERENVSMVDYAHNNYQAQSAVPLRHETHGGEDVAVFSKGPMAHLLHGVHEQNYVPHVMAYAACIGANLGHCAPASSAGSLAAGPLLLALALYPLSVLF

Vero [3] = assay: cells; format: functional, cell-based; details: Chlorocebus sabaeus
Escherichia coli = assay: microbe, parasite or virus in culture
[4] = biological target: Peroxisome proliferator-activated receptor gamma/Nuclear receptor coactivator 1 (Homo sapiens, UniProt P37231); assay: TR-FRET dose response biochemical High Throughput Screening assay for agonists of the steroid receptor coactivator 1 (SRC-1) recruitment by the peroxisome proliferator-activated receptor gamma (PPAR gamma): non-selective agonists. [Related pubchem assays (depositor defined):AID1300, AID1808, AID504735, AID631]; format: protein assay
[5] = biological target: Peroxisome proliferator-activated receptor gamma/Nuclear receptor coactivator 3 (Homo sapiens, UniProt P37231); assay: TR-FRET dose response biochemical High Throughput Screening assay for agonists of the steroid receptor coactivator 3 (SRC-3) recruitment by the peroxisome proliferator-activated receptor gamma (PPAR gamma): non-selective agonists. [Related pubchem assays: 1301 (Confirmation screen.), 1048 (Primary screen.)]; format: functional
[6] = biological target: Peroxisome proliferator-activated receptor gamma/Nuclear receptor coactivator 2 (Homo sapiens, UniProt P37231); assay: TR-FRET dose response biochemical High Throughput Screening assay for agonists of the steroid receptor coactivator 2 (SRC-2) recruitment by the peroxisome proliferator-activated receptor gamma (PPAR gamma): non-selective agonists. [Related pubchem assays: 1297, 1032 ]; format: functional
[7] = inhibitors of firefly luciferase expression or activity, dose response, H4 neuroglioma cells, luminescence (AID 1990); format: functional, cell-based
BJ [8] = assay: cytotoxicity toward BJ-TERT fibroblasts, dose response, cell-based, RAS-independent, luminescence (AID 1933); format: functional; details: Homo sapiens
[9] = Luminescence Cell-Based Dose Response HTS to Identify Inhibitors of 5'UTR Stem-Loop Driven Prion Protein mRNA Translation in H4 Neuroglioblastoma Cells. [Related pubchem assays: 1827 (Project Summary), 1813 (Primary HTS)]; format: functional
[10] = inhibitors of SNCA 5'UTR-driven reporter translation, confirmation, H4 neuroglioma cells, luminescence (AID 1988); format: functional, cell-based
BJ [11] = assay: cytotoxicity toward BJ-TERT-LT-ST fibroblasts, dose response, cell-based, RAS-independent, luminescence (AID 1935); format: functional; details: Homo sapiens;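 also: BJ fibroblasts immortalized with TERT plus LT and ST oncogenes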
[12] = cytotoxicity toward DRD oncogenic fibroblasts, dose response, cell-based, non-viral oncogenic, luminescence (AID 1934); format: functional; details: Homo sapiens
[13] = Luminescence Cell-Based Dose Retest to Confirm Inhibitors of Cancer Stem Cells. [Related pubchem assays (depositor defined):AID2717, AID2721]; format: functional; details: Homo sapiens
[14] = cytotoxicity in HEK-293T cells, dose response, cytotoxicity control for TCR NF-kB inhibitor project, luminescence, T-cell screen hits (AID 489026); format: functional, cell-based;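 also: cells exposed to compound about 14 hours before the viability readout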
[15] = biological target: T2, Carboxy-terminal domain RNA polymerase II polypeptide A small phosphatase 1 (Homo sapiens, UniProt Q9GZU7); assay: inhibitors of CTDSP1, concentration-response testing, biochemical assay, absorbance-based, actives from ultra-high-throughput screening (AID 540297); format: functional
T2 sequence (Q9GZU7 whole entry): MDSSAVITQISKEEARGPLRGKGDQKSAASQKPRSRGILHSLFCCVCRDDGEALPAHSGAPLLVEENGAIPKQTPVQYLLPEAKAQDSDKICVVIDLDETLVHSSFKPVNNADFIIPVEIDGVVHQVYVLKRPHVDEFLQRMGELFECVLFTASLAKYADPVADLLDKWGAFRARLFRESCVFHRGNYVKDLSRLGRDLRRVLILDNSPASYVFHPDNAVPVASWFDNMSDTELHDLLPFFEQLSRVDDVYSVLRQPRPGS

Vero [16] = assay: cells; format: functional; details: Chlorocebus sabaeus
[17] = Luminescence Cell-Based Dose Confirmation HTS to Identify Activators of 5'UTR Stem-Loop Driven Alpha-Synuclein mRNA Translation in H4 Neuroglioblastoma Cells. [Related pubchem assays: 1829 (Project Summary), 1814 (Primary HTS)]; format: functional
[18] = Luminescence Cell-Based Dose Response HTS to Identify Activators of Luciferase Translation or Activity in H4 […] Cells. [Related pubchem assays: 1829 (Project Summary), 1814 (Primary HTS)]; format: functional
H4 = assay: Luminescence Cell-Based Dose Response HTS to Identify Activators of 5'UTR Stem-Loop Driven Prion Protein mRNA Translation in H4 Neuroglioblastoma Cells. [Related pubchem assays: 1829 (Project Summary), 1814 (Primary HTS)]; format: functional; details: Homo sapiens
[19] = biological target: T3, High affinity choline transporter 1 (Homo sapiens, UniProt Q9GZV3); assay: CHT inhibitors, dose response, cell-based, 5-point CRC, membrane potential dye (AID 504840); format: functional
T3 sequence (Q9GZV3 whole entry): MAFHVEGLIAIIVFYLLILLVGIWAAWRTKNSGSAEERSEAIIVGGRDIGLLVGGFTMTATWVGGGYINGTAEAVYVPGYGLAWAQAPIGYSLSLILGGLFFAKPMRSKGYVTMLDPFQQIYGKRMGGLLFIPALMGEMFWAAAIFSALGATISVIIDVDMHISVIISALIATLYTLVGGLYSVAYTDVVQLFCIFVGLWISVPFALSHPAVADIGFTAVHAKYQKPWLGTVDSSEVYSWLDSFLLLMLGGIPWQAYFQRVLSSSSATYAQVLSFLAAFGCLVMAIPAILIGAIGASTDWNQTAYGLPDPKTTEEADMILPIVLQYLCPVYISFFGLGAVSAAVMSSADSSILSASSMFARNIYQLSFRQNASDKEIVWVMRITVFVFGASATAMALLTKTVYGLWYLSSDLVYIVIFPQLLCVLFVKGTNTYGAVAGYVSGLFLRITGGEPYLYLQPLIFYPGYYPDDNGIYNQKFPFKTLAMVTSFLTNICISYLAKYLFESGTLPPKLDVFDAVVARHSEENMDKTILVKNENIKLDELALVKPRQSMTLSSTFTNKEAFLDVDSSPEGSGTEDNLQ

[20] = biological target: T4, Microphthalmia-associated transcription factor (Homo sapiens, UniProt O75030); assay: TRPM1 promoter luciferase signal decrease, dose response, MITF inhibitor project, cell-based, SK-MEL-5, cherry-picked, set 3 (AID 493073); format: functional
T4 sequence (O75030 whole entry): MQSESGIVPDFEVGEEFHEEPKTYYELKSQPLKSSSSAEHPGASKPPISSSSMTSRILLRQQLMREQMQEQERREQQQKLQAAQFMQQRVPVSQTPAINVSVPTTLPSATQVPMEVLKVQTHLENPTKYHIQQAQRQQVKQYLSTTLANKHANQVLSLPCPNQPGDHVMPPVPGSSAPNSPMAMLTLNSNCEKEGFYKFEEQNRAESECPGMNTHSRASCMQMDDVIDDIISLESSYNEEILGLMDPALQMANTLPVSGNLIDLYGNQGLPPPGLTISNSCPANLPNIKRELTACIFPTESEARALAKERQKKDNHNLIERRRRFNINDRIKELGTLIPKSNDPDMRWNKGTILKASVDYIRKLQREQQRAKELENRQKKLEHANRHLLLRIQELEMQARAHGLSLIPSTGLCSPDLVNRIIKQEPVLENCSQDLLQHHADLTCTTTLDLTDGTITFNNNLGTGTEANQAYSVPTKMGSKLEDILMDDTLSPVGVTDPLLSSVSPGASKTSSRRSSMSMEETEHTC

[21] = biological target: T5, Endoribonuclease toxin MazF (Escherichia coli K-12, UniProt P0AE70); assay: MazF toxin RNase activators, dose response, biochemical, fluorescence, single-stranded RNA substrate, uHTS hits (AID 588481); format: functional
T5 sequence (P0AE70 whole entry): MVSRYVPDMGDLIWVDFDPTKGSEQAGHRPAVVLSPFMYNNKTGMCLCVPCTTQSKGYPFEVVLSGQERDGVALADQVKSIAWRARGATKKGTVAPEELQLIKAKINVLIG

[22] = biological target: T5, Endoribonuclease toxin MazF; assay: fluorescent RNA oligo signal without MazF, dose response, counter-screen for MazEF activator project, biochemical, fluorescence, single-stranded RNase substrate (AID 588502); format: functional
[23] = biological target: Dual specificity tyrosine-phosphorylation-regulated kinase 1A (Rattus norvegicus, UniProt Q63470); format: biochemical, Homo sapiens
[24] = biological target: T6, Rac GTPase-activating protein 1 (Homo sapiens, UniProt Q9H0H5); assay: MgcRacGAP GTPase-activating activity inhibitors, confirmation, biochemical, ADP Hunter fluorescence, primary and confirmatory (AID 624330); format: functional
T6 sequence (Q9H0H5 whole entry): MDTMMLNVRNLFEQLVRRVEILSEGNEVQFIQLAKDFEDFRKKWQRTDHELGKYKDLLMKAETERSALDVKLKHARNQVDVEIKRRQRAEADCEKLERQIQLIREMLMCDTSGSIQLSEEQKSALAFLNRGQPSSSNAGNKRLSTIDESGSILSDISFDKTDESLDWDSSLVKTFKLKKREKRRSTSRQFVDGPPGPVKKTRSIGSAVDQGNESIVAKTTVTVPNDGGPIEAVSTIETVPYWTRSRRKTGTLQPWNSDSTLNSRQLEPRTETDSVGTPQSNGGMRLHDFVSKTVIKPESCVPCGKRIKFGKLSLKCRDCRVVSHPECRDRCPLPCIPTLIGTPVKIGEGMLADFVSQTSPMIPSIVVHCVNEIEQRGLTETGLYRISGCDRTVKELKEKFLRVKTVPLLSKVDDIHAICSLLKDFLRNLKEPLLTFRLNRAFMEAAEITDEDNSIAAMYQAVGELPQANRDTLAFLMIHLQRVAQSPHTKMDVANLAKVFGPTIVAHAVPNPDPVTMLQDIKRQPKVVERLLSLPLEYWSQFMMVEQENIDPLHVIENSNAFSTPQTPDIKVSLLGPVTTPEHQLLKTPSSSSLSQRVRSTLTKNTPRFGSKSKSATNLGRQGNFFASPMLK

Cytochrome P450 3A4 = Cytochrome P450 3A4 (Homo sapiens, UniProt P08684);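 also: CYP3A4 tested as one member of a cytochrome P450 panel screen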
Cytochrome P450 3A4, sequence (P08684 whole entry): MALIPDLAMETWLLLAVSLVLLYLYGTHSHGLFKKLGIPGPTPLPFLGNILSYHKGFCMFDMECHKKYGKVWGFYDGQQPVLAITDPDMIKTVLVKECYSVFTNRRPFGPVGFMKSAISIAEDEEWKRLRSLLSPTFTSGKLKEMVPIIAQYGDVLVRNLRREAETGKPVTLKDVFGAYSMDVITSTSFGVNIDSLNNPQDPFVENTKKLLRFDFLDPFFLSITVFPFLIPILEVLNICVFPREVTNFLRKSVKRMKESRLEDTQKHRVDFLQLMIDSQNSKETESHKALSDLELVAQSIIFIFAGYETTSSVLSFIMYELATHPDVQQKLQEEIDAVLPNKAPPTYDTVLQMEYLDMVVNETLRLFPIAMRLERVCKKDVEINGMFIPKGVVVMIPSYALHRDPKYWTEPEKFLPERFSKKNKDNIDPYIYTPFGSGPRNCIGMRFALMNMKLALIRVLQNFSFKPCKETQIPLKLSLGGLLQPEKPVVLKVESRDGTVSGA

Alkaline phosphatase, placental type, sequence (P05187 whole entry): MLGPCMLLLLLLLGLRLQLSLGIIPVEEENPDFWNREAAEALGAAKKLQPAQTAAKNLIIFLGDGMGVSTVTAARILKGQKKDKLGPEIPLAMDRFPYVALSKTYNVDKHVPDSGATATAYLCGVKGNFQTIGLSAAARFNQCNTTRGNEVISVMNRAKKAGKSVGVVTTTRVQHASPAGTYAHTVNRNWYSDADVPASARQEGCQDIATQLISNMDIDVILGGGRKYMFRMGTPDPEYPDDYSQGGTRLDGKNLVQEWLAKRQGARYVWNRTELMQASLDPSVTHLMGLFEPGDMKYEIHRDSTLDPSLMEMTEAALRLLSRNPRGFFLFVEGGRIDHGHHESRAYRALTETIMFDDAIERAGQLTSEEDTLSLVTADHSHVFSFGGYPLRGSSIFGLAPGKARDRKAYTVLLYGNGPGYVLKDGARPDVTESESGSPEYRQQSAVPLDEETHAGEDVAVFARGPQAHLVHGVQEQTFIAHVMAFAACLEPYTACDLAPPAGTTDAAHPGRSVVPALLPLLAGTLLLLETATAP
Peroxisome proliferator-activated receptor gamma/Nuclear receptor coactivator 1, sequence (P37231 whole entry): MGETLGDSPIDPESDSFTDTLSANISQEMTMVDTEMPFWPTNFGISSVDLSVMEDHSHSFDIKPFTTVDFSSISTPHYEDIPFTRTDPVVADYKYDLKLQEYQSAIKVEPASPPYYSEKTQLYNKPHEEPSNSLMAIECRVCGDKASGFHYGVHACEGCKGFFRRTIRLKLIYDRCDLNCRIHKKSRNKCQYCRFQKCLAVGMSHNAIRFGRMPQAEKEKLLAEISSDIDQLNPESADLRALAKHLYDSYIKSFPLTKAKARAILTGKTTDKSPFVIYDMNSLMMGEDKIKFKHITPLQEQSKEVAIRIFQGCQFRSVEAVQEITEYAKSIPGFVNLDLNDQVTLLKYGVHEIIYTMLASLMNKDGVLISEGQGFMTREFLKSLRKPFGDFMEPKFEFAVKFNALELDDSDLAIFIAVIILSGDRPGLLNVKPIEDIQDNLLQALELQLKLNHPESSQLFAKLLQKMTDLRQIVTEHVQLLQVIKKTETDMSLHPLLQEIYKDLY
Peroxisome proliferator-activated receptor gamma/Nuclear receptor coactivator 1, sequence (Q15788 whole entry, further chain): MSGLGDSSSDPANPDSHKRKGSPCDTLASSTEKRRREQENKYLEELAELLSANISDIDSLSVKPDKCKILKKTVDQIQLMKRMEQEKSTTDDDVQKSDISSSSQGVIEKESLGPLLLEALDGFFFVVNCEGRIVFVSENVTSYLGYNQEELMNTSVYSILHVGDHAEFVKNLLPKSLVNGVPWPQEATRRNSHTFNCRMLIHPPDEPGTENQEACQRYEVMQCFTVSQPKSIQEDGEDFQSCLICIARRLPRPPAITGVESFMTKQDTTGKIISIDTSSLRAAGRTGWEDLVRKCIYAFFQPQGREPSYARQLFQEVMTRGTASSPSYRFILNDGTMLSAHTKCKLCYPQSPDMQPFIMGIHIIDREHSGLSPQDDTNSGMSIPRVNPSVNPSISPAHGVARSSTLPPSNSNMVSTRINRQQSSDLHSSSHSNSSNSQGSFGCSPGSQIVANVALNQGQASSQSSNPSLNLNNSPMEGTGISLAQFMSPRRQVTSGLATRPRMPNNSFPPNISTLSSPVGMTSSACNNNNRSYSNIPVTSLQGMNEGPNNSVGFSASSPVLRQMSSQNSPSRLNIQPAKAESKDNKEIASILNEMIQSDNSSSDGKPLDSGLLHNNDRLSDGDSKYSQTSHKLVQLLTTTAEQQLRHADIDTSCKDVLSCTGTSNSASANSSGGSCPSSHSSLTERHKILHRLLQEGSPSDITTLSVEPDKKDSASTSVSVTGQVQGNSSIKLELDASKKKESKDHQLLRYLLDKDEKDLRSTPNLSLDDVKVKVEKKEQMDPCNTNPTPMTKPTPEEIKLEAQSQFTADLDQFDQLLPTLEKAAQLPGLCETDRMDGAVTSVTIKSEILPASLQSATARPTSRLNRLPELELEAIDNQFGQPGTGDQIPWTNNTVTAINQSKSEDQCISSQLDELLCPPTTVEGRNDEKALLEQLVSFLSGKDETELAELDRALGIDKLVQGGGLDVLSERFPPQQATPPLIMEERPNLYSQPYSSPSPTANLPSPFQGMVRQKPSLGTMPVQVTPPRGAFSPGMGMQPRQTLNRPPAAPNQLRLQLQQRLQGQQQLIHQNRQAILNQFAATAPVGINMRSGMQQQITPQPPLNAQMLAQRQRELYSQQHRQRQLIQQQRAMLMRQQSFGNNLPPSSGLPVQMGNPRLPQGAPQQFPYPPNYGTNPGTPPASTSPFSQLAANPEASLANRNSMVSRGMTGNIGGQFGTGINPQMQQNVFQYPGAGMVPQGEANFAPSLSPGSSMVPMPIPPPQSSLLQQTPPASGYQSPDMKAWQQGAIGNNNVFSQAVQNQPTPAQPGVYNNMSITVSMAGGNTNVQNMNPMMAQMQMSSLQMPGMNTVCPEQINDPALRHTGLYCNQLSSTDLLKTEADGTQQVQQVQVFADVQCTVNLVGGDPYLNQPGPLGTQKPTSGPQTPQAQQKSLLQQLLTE
Peroxisome proliferator-activated receptor gamma/Nuclear receptor coactivator 3, sequence (P37231 whole entry): as the sequence (P37231 whole entry) above
Peroxisome proliferator-activated receptor gamma/Nuclear receptor coactivator 3, sequence (Q9Y6Q9 whole entry, further chain): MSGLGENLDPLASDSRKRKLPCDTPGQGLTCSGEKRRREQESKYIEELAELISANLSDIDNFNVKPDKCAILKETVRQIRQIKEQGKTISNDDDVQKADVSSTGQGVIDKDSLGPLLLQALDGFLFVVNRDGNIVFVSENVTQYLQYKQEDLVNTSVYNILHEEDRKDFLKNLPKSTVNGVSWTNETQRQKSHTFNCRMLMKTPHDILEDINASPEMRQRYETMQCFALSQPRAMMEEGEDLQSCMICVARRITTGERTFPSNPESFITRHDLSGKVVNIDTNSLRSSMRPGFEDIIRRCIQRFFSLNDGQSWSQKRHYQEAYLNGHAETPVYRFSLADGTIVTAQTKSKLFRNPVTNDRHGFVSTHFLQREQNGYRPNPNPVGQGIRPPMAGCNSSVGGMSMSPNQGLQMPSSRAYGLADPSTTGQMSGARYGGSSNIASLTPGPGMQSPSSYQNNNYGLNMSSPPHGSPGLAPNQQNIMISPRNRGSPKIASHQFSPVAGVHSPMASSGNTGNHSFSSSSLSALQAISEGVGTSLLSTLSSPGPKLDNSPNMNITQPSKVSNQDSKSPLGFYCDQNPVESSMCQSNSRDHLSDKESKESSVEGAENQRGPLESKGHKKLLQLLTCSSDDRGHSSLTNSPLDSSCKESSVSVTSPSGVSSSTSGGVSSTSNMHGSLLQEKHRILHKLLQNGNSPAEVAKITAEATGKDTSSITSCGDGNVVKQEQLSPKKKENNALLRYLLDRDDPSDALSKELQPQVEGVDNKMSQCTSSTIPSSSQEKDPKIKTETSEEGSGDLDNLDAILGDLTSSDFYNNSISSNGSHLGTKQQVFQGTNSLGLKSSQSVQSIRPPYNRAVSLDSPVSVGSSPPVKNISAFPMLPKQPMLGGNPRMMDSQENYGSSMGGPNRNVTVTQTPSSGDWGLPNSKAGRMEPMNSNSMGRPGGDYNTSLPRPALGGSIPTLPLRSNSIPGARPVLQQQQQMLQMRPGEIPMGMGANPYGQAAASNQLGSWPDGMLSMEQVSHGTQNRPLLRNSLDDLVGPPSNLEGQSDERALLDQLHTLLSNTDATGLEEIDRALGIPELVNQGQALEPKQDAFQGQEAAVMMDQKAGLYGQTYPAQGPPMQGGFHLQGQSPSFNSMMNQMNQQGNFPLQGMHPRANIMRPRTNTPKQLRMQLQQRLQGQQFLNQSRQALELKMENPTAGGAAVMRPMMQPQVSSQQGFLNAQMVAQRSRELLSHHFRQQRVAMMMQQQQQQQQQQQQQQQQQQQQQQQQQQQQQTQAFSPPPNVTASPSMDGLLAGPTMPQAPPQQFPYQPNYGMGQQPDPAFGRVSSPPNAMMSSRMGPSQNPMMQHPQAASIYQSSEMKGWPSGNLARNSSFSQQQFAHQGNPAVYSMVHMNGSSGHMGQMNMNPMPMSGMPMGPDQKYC

Nc1nnc(-c2cc3ccccc3oc2=O)s1
IC50 [1]: > 100 µM (inactive) | IC50 [2]: > 100 µM (inactive)

CC(=O)Nc1ccc(CCNC(=O)c2ccc3ccccc3c2O)cc1
IC50 (Vero [3]): > 25 µM (active)

Cc1cc(C)c2c(O)nc(SCC(=O)c3ccc(O)c(O)c3)nc2n1
IC50 [1]: 8.77 µM (active) | IC50 [2]: > 100 µM (inactive)

COc1cc(S(=O)(=O)Nc2cc(C)cc(C)c2)ccc1F
AC50 (Escherichia coli): 64.9 µM (active)

O=C(CSc1ncnc2c1oc1ccccc12)Nc1cccc(C(F)(F)F)c1
EC50 [4]: > 79.4 µM (inactive) | EC50 [5]: > 79.4 µM (not active) | EC50 [6]: 23 µM (not active)

COc1cccc(-c2cc(O)c3cc(NC(=O)c4ccc(N(C)C)cc4)ccc3n2)c1
EC50 [7]: 0.334 µM (active) | EC50 (BJ [8]): 0.664 µM (active) | EC50 [9]: 1.24 µM (active) | EC50 [10]: 0.296 µM (active) | EC50 (BJ [11]): 0.729 µM (inconclusive) | EC50 [12]: 0.599 µM (active) | AC50 [13]: 0.477 µM (active) | IC50 [14]: > 80 µM (inactive)

Cc1cc(C)cc(NC(=O)c2cc(C)n(Cc3cccs3)c2C)c1
IC50 [14]: > 80 µM (inactive)

CC(=O)Nc1cc[n+](CC(=O)c2cccc([N+](=O)[O-])c2)cc1
IC50 (Vero [3]): 6.55 µM (active)

CCc1nccn1CC(=O)c1ccc(O)c(O)c1
IC50 [1]: 3.73 µM (active) | IC50 [2]: 62.5 µM (active)

COc1ccc(CC(=O)NNC(=O)COc2ccc3ccccc3c2)cc1
EC50 [4]: 2 µM (active) | EC50 [5]: 3.65 µM (active) | EC50 [6]: 1.93 µM (active) | IC50 [15]: 9.26 µM (active)

CC(=O)/C=C1/C(=O)Nc2ccccc21
IC50 (Vero [3]): > 25 µM (active) | CC50 (Vero [16]): 21.9 µM (active)

Cc1cc2ncn(CCOc3ccccc3)c2cc1C
EC50 [17]: 19.4 µM (active) | EC50 [18]: 39 µM (active) | EC50 (H4): 38.8 µM (active) | AC50 (Escherichia coli): 41.4 µM (active)

CC(C)(C)c1ccc(C(=O)n2cnc3ccccc32)cc1
AC50 (Escherichia coli): 33.1 µM (active)

CC(=O)Nc1ccc(Nc2cc(C)c3ccccc3n2)cc1
IC50 [19]: 11.2 µM (active)

CCOC(=O)CSC1=NC(=O)/C(=C\c2ccc(OC(C)=O)cc2)S1
EC50 [17]: 8.97 µM (active) | EC50 [18]: 10.4 µM (active) | EC50 (H4): 10.5 µM (active) | AC50 [20]: 5.12 µM (active) | EC50 [21]: > 99 µM (inactive) | EC50 [22]: > 99 µM (inactive) | AC50 [23]: 0.216 µM (active) | IC50 [24]: 35.2 µM (active) | AC50 (Cytochrome P450 3A4): 14.1 µM (inconclusive)

CC(C)COC(=O)CNc1nnc(S)nc1O
EC50 [4]: 2.86 µM (active) | EC50 [5]: 37.9 µM (not active) | EC50 [6]: 3.42 µM (active)

Cc1nc2ccccc2c(=O)n1CCCO
AC50 (Escherichia coli): 27.2 µM (active)
